Assay results taken from patent publication US9987293B2, “Method for treating chronic lymphocytic leukemia” (BIONOMICS LIMITED, priority 2014, dated 2018).

Key:
[1] = tested on: normal peripheral lymphocytes; experiment: Toxicity to normal peripheral lymphocytes (PARP cleavage, chromatin condensation, pJNK, Noxa); type: cell-based, human
Procedure: (§1) Cells were incubated for 10 min with 2 μg/mL. Hoechst 33342 at 37° C. and visualized with a fluorescent microscope. At least 200 cells were scored for each sample. The percentage of cells with condensed chromatin was recorded.
(§2) Cells were lysed in urea sample buffer [4 mol/L urea, 10% β-mercaptoethanol, 6% SDS, […] (pH 6.8), 0.01% bromphenol blue, and protease/phosphatase inhibitor cocktail] and boiled for 5 min. Proteins were subsequently separated by SDS-PAGE (10 or 15%) and transferred to polyvinylidene difluoride membrane (Millipore). Membranes were blocked with 5% nonfat milk in TBS and 0.05% Tween 20, and were probed with the appropriate primary antibody overnight. Subsequently, membranes were washed in […] and 0.05% Tween 20, and then incubated with secondary antibody conjugated to horseradish peroxidase. Proteins were visualized by enhanced chemiluminescence (Amersham). Actin was used as a loading control in Western blots.
To test the potential toxicity of EX2, normal peripheral lymphocytes were isolated from a healthy volunteer and incubated with EX2 alone or in combination with ABT-199.

CLL cells on L4.5 stroma = experiment: Apoptosis of CLL cells co-incubated on CD154+ L4.5 stroma; type: cell-based, human; settings: for sensitivity of stroma co-incubated CLL cells: co-incubation on stroma for 24 h
Procedure: (§3) CLL cells were obtained from consented patients at the Norris Cotton Cancer Center. Cells were purified by centrifugation in Ficoll-Paque PLUS from 10 ml, of blood. Lymphocytes were plated in RPMI 1640 plus 10% serum at 1×10^6 cells/mL after three washes in PBS+2 mmol/L EDTA. Cells were either incubated immediately with reagents or after 24 h incubation with confluent layers of CD154+ stromal cells (L 4.5) at a ratio of 5:1.
as §1
The experiments above have shown that CLL cells are usually very sensitive to EX2. However, these cells were isolated from peripheral blood, and the real problem to curing CLL is to be able to kill cells that reside in the lymph node or […] marrow niche. To mimic this niche, we have used L4.5 cells that express CD154. […] However, when ABT-199 and EX2 were combined, marked apoptosis was again observed. For example, 100 nM ABT-199 alone induced about 10% apoptosis, whereas when combined with 1 μM EX2, >60% apoptosis was observed within 6 h. The combination of 1 μM EX2 and 1 μM ABT-199 induced about 80% apoptosis. This patient's cells appeared to be more resistant than those summarized in FIG. 2 which may therefore understate the impact of this combination. In cells from another patient that were more sensitive to EX2 alone we observed greater sensitization to ABT-199; these cells were not tested on stroma.

Jeko-1 cells = experiment: Kinetics of apoptosis in Jeko-1 cells (Western blot); type: cell-based; settings: Jeko-1 cells (FIG. 7)
Procedure: as §2
It was noted that in many of these experiments, PARP cleavage was incomplete at 6 h. To determine whether greater apoptosis occurred at later time points, we incubated cells for up to 24 h with EX2 (FIG. 6).

CLL cells [2] = experiment: Chromatin condensation (Hoechst 33342) apoptosis in freshly isolated CLL cells; type: cell-based, human; settings: 6 h
Procedure: as §3, §1
(§4) To determine whether EX2 induces apoptosis, freshly isolated CLL cells were incubated in media containing 0-1 μM EX2. Chromatin condensation was scored as a classic marker of apoptosis. Apoptosis was observed following incubation of cells with 10-100 nM EX2 and this also correlated with the cleavage of PARP (FIG. 1). Protein lysates were also assessed for both pJNK and NOXA, both of which were increased by the same concentrations of EX2.

CLL cells [3] = experiment: Immunoblot of PARP cleavage, pJNK and Noxa in CLL cells; type: cell-based, human
Procedure: as §3, §2, §4

With `CC1(C)CCC(CN2CCN(c3ccc(C(=O)NS(=O)(=O)c4ccc(NCC5CCOCC5)c([N+](=O)[O-])c4)c(Oc4cnc5[nH]ccc5c4)c3)CC2)=C(c2ccc(Cl)cc2)C1` [ABT-199, reference compound] the “PARP cleavage in normal lymphocytes” value ([1]; healthy volunteer cells, ABT-199 alone) was “slight PARP cleavage”, the “chromatin condensation in normal lymphocytes” value ([1]; healthy volunteer cells, ABT-199 with or without EX2) was “no chromatin condensation was observed” and the “apoptosis, 100 nM alone” value (CLL cells on L4.5 stroma; CLL cells on stroma, 100 nM ABT-199 alone) was “about 10%”. For the same molecule, the “sensitivity of stroma co-incubated CLL cells” value (CLL cells on L4.5 stroma) was “marked resistance”.
`CCc1cnn2c(NCc3ccc[n+]([O-])c3)cc(N3CCCC[C@H]3CCO)nc12` [Dinaciclib, reference compound] was tested, and the “apoptosis in normal leukocytes” value ([1]; healthy volunteer cells, dinaciclib alone) was “induced some apoptosis”.
In the case of `COc1cc(C(=O)c2c(C)oc3c(OP(=O)([O-])[O-])c(OC)ccc23)cc(OC)c1OC.[Na+].[Na+]` [EX2, Disodium 6-methoxy-2-methyl-3-(3,4,5-trimethoxybenzoyl)benzofuran-7-yl phosphate], the “time by which apoptosis was complete” value (Jeko-1 cells) is reported as “up to 24 h”, the “effect of EX2 on ABT-199-induced PARP cleavage in normal lymphocytes” value ([1]; EX2 combined with ABT-199) is reported as “not increased” and the “effect of EX2 on dinaciclib-induced apoptosis in normal leukocytes” value ([1]; EX2 combined with dinaciclib) is reported as “not increased”. For the same molecule, the “Noxa induction in normal lymphocytes” value ([1]; healthy volunteer cells) was “no Noxa was induced”, the “pJNK in normal lymphocytes” value ([1]; healthy volunteer cells) was “activated” and the “PARP cleavage or chromatin condensation in normal lymphocytes” value ([1]; healthy volunteer cells, single agent, 6 h) was “no significant PARP cleavage or chromatin condensation”. For the same molecule, the “apoptosis, single agent at 1 μM” value (CLL cells on L4.5 stroma; CLL cells co-cultured on L4.5 stroma 24 h, 1 μM) was “no apoptosis observed”, the “apoptosis, combination of 1 μM EX2 and 1 μM ABT-199” value (CLL cells on L4.5 stroma; CLL cells on stroma) was “about 80%” and the “apoptosis, 1 μM EX2 combined with 100 nM ABT-199” value (CLL cells on L4.5 stroma; CLL cells on stroma, within 6 h) was greater than 60%. The “sensitivity of stroma co-incubated CLL cells” value (CLL cells on L4.5 stroma) was “markedly resistant”, the “concentration at which apoptosis (chromatin condensation) was observed” value (CLL cells [2]; freshly isolated CLL cells, 0-1 μM, correlated with PARP cleavage) was 10 to 100 nM and the “relative potency as inducer of apoptosis” value (CLL cells [2]; versus vinblastine and combretastatin A4, chromatin condensation and PARP cleavage) was “more potent inducer of apoptosis”. For the same molecule, the “time to activation of JNK” value (CLL cells [3]; CLL cells) was “less than one”, the “PARP cleavage over time” value (CLL cells [3]; CLL cells incubated up to 24 h (FIG. 6), by 24 h) was “almost total cleavage of PARP” and the “PARP cleavage in presence of JNK inhibitor VIII” value (CLL cells [3]; CLL cells, 0-1 μM EX2 with JNK inhibitor VIII) was “completely prevented”. The “lowest concentration at which apoptosis began to appear” value (CLL cells [3]; CLL cells, 6 h, FIG. 2A, pJNK and Noxa correlated) was 5 nM, the “JNK activation and PARP cleavage after 1 h pulse treatment” value (CLL cells [3]; CLL cells, five hours after removing EX2, versus continuous incubation) was “still observed albeit slightly less” and the “pJNK and NOXA levels” value (CLL cells [3]; protein lysates of CLL cells, same concentrations (10-100 nM)) was “increased”.
